Laboratory results taken from ChEMBL document CHEMBL1201862, “PubChem BioAssay data set” (2004).
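How tested: cells in 96-well plates exposed to compound for 48 hours at five concentrations. GI50 = concentration required for 50% inhibition of growth.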 The source made the active and inactive calls. No stated cut-off is given here; in the data, active = GI50 up to about 1.1 µM and inactive = higher.

Legend:
Experiment in all cases: NCI tumour cell line growth inhibition, 48 h
A549 = system: A549
CCRF-CEM = system: CCRF-CEM
DU-145 = system: DU-145
HOP-62 = system: HOP-62
HOP-92 = system: HOP-92
Hs-578T = system: Hs-578T
M14 = system: M14
MDA-MB-231 = system: MDA-MB-231
MDA-N = system: MDA-N
NCI-H226 = system: NCI-H226
NCI/ADR-RES = system: NCI/ADR-RES
SF-268 = system: SF-268
SF-295 = system: SF-295
SK-MEL-2 = system: SK-MEL-2
SW-620 = system: SW-620
TK-10 = system: TK-10
U-251 = system: U-251
UO-31 = system: UO-31
IGROV-1 = system: IGROV-1

SMILES | GI50 (A549) | GI50 (CCRF-CEM) | GI50 (DU-145) | GI50 (HOP-62) | GI50 (HOP-92) | GI50 (Hs-578T) | GI50 (M14) | GI50 (MDA-MB-231) | GI50 (MDA-N) | GI50 (NCI-H226) | GI50 (NCI/ADR-RES) | GI50 (SF-268) | GI50 (SF-295) | GI50 (SK-MEL-2) | GI50 (SW-620) | GI50 (TK-10) | GI50 (U-251) | GI50 (UO-31) | GI50 (IGROV-1)
CCOC(=O)CC1(O)CCCCC1(Sc1ccc(C)cc1)Sc1ccc(C)cc1 (centres undefined) | 33.8 µM (inactive) | 4.76 µM (inactive) | 59.2 µM (inactive) | 54.2 µM (inactive) | 29.6 µM (inactive) | 25.4 µM (inactive) | 41.4 µM (inactive) | 77.4 µM (inactive) | 35.5 µM (inactive) | 34.4 µM (inactive) | 65.9 µM (inactive) | 31.7 µM (inactive) | 41 µM (inactive) | 20.5 µM (inactive) | 62.4 µM (inactive) | > 100 µM (inactive) | 33.7 µM (inactive) | 41.8 µM (inactive) | –
CC(=O)OCCCCn1cc(Cn2ccc(=O)n(Cc3cn(CCCCOC(C)=O)nn3)c2=O)nn1 | > 100 µM (inactive) | > 100 µM (inactive) | > 100 µM (inactive) | > 100 µM (inactive) | > 100 µM (inactive) | > 100 µM (inactive) | > 100 µM (inactive) | > 100 µM (inactive) | > 100 µM (inactive) | > 100 µM (inactive) | > 100 µM (inactive) | > 100 µM (inactive) | > 100 µM (inactive) | > 100 µM (inactive) | > 100 µM (inactive) | > 100 µM (inactive) | > 100 µM (inactive) | > 100 µM (inactive) | > 100 µM (inactive)
C=CCn1c(N)c(C#N)c(C#N)c1-c1ccccc1 | > 100 µM (inactive) | > 100 µM (inactive) | > 100 µM (inactive) | > 100 µM (inactive) | > 100 µM (inactive) | > 100 µM (inactive) | > 100 µM (inactive) | > 100 µM (inactive) | > 100 µM (inactive) | > 100 µM (inactive) | > 100 µM (inactive) | > 100 µM (inactive) | > 100 µM (inactive) | 26.8 µM (inactive) | > 100 µM (inactive) | > 100 µM (inactive) | > 100 µM (inactive) | > 100 µM (inactive) | > 100 µM (inactive)
C=CCOC1=C(OCC=C)C(C2COC(C)(C)O2)OC1=O (centres undefined) | > 100 µM (inactive) | 29.4 µM (inactive) | > 100 µM (inactive) | > 100 µM (inactive) | 14.8 µM (inactive) | > 100 µM (inactive) | > 100 µM (inactive) | > 100 µM (inactive) | > 100 µM (inactive) | > 100 µM (inactive) | > 100 µM (inactive) | > 100 µM (inactive) | > 100 µM (inactive) | > 100 µM (inactive) | > 100 µM (inactive) | > 100 µM (inactive) | > 100 µM (inactive) | > 100 µM (inactive) | > 100 µM (inactive)
O=C1N/C(=N/N=C\C(O)C(O)C(O)C(O)CO)N/C1=C\c1ccc(Cl)cc1 (centres undefined) | 27.2 µM (inactive) | 4.89 µM (inactive) | 15.2 µM (inactive) | 2.72 µM (inactive) | 1.8 µM (inactive) | 2.48 µM (inactive) | 3.1 µM (inactive) | 4.81 µM (inactive) | 0.968 µM (active) | 3 µM (inactive) | > 100 µM (inactive) | 3.61 µM (inactive) | 9.23 µM (inactive) | 7.06 µM (inactive) | 8.87 µM (inactive) | 4.8 µM (inactive) | 2.15 µM (inactive) | 44.1 µM (inactive) | 12.4 µM (inactive)
O=C(N/N=C/c1ccc2c(c1)OCO2)Nc1ccccc1Cl | 3.33 µM (inactive) | 1.13 µM (inactive) | 2.02 µM (inactive) | 2.61 µM (inactive) | 6.24 µM (inactive) | 1.66 µM (inactive) | 0.671 µM (active) | 4.7 µM (inactive) | 0.161 µM (active) | 4.19 µM (inactive) | 0.335 µM (active) | 3.76 µM (inactive) | 0.47 µM (active) | 0.556 µM (active) | 0.708 µM (active) | 2.15 µM (inactive) | 2.68 µM (inactive) | 4.25 µM (inactive) | 0.622 µM (active)
Nc1ncnc2c1N=C(c1ccccc1)CC(c1ccccc1)N2 (centres undefined) | > 100 µM (inactive) | > 100 µM (inactive) | > 100 µM (inactive) | 97.5 µM (inactive) | > 100 µM (inactive) | 39.4 µM (inactive) | > 100 µM (inactive) | > 100 µM (inactive) | > 100 µM (inactive) | > 100 µM (inactive) | 59.2 µM (inactive) | > 100 µM (inactive) | > 100 µM (inactive) | > 100 µM (inactive) | > 100 µM (inactive) | > 100 µM (inactive) | > 100 µM (inactive) | > 100 µM (inactive) | –
S=c1sc2nc(Cl)nc(Cl)c2s1 | 19 µM (inactive) | 0.598 µM (active) | 16 µM (inactive) | 19.9 µM (inactive) | 5.24 µM (inactive) | 24 µM (inactive) | 4.16 µM (inactive) | 9.02 µM (inactive) | 7.98 µM (inactive) | 17.5 µM (inactive) | 11 µM (inactive) | 14.8 µM (inactive) | 16.7 µM (inactive) | 11.4 µM (inactive) | 6.85 µM (inactive) | 13.6 µM (inactive) | 7.8 µM (inactive) | 11.1 µM (inactive) | 13.8 µM (inactive)
O=[N+]([O-])c1ccc(S(=O)(=O)n2c3ccc(Br)cc3c3nc4ccccc4nc32)cc1 | > 100 µM (inactive) | 20.7 µM (inactive) | > 100 µM (inactive) | > 100 µM (inactive) | > 100 µM (inactive) | 53.6 µM (inactive) | > 100 µM (inactive) | > 100 µM (inactive) | > 100 µM (inactive) | 24 µM (inactive) | > 100 µM (inactive) | > 100 µM (inactive) | > 100 µM (inactive) | > 100 µM (inactive) | > 100 µM (inactive) | > 100 µM (inactive) | > 100 µM (inactive) | > 100 µM (inactive) | > 100 µM (inactive)
C/C=C(\C)c1cc(=O)c2c(C)cc3c(c2o1)C(OC)(OC(C)=O)c1c(O)c(C2CC(C)(N(C)C)C(OC(C)=O)C(C)O2)cc(C2CC(N(C)C)C(OC(C)=O)C(C)O2)c1C3=O (centres undefined) | 0.514 µM (active) | 0.419 µM (active) | 0.497 µM (active) | 0.621 µM (active) | 1.28 µM (inactive) | 1.16 µM (inactive) | 1.24 µM (inactive) | 0.178 µM (active) | 1.64 µM (inactive) | 1.34 µM (inactive) | 1.75 µM (inactive) | 0.27 µM (active) | 0.942 µM (active) | 2.18 µM (inactive) | 0.237 µM (active) | 1.45 µM (inactive) | 0.914 µM (active) | 1.57 µM (inactive) | 1.61 µM (inactive)
CC1(C)CCC(C)(C)c2c1ccc(O)c2Cc1c(O)ccc2c1C(C)(C)CCC2(C)C | 2.27 µM (inactive) | 2.31 µM (inactive) | 2.23 µM (inactive) | 2.19 µM (inactive) | 1.95 µM (inactive) | 2.84 µM (inactive) | 1.88 µM (inactive) | 1.66 µM (inactive) | 1.92 µM (inactive) | 1.88 µM (inactive) | 2.08 µM (inactive) | 2.47 µM (inactive) | 2.45 µM (inactive) | 1.65 µM (inactive) | 2.18 µM (inactive) | 1.98 µM (inactive) | 1.78 µM (inactive) | 1.92 µM (inactive) | 1.97 µM (inactive)
C1CSCCCSCCCSCCCSCCCSCCCSCCCSCCCSC1 | > 100 µM (inactive) | > 100 µM (inactive) | > 100 µM (inactive) | > 100 µM (inactive) | > 100 µM (inactive) | > 100 µM (inactive) | > 100 µM (inactive) | > 100 µM (inactive) | > 100 µM (inactive) | 82.2 µM (inactive) | > 100 µM (inactive) | > 100 µM (inactive) | > 100 µM (inactive) | > 100 µM (inactive) | > 100 µM (inactive) | > 100 µM (inactive) | > 100 µM (inactive) | > 100 µM (inactive) | > 100 µM (inactive)
Cc1c2ncccc2cc2oc3ccccc3c(=O)c12 | 12.9 µM (inactive) | 16 µM (inactive) | 29.2 µM (inactive) | 30.9 µM (inactive) | 28.3 µM (inactive) | > 100 µM (inactive) | – | 92 µM (inactive) | 63.4 µM (inactive) | 38.4 µM (inactive) | 21.4 µM (inactive) | 41.7 µM (inactive) | 31.6 µM (inactive) | > 100 µM (inactive) | 33.5 µM (inactive) | 91.4 µM (inactive) | – | 7.06 µM (inactive) | 4.63 µM (inactive)
COc1ccc(N2C(=O)C(C)SC2c2cc3cc(Br)ccc3nc2Cl)cc1 (centres undefined) | 12.4 µM (inactive) | 26.6 µM (inactive) | 57.3 µM (inactive) | 36.2 µM (inactive) | 22.9 µM (inactive) | 38.5 µM (inactive) | 44.4 µM (inactive) | 31.6 µM (inactive) | 28.5 µM (inactive) | 55.3 µM (inactive) | 24.3 µM (inactive) | 38.3 µM (inactive) | 33.1 µM (inactive) | 19.7 µM (inactive) | 30.4 µM (inactive) | 38.6 µM (inactive) | – | 33.6 µM (inactive) | 7.93 µM (inactive)
O=[N+]([O-])c1ccc2nc(Nc3ccccc3)c(Nc3ccccc3)nc2c1 | 0.349 µM (active) | 0.875 µM (active) | 1.77 µM (inactive) | 1.19 µM (inactive) | 1.63 µM (inactive) | 2.65 µM (inactive) | – | 1.36 µM (inactive) | 0.553 µM (active) | 2.4 µM (inactive) | 1.46 µM (inactive) | 1.62 µM (inactive) | 1.14 µM (inactive) | 2.15 µM (inactive) | 1.56 µM (inactive) | 2.83 µM (inactive) | 0.512 µM (active) | 1.21 µM (inactive) | 1.58 µM (inactive)
